Measurements: patent US11446287B2, “Compounds and methods for EP300 or CBP modulation and indications therefor” (Opna Immuno-Oncology SA, priority 2019, dated 2022)
pIC50: −log10 of the molar value.

Each compound was assayed against T1, Recombinant human EP300 containing the bromodomain (EP300-BD (1040-1161)) (Homo sapiens, UniProt Q09472) (assay: EP300 Alphascreen binding assay).
T1 construct: Recombinant human EP300 bromodomain (EP300-BD (1040-1161)); made in house; host or cells: E. coli BL21-CodonPlus (DE3), modified pET vector
T1 sequence (Q09472 1040-1161): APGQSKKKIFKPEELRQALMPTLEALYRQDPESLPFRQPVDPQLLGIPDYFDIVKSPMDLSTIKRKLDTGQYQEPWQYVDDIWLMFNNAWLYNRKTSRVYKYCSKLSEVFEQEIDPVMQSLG
Protocol: EP300 Alphascreen Binding Assay
Binding of compounds of Formula (I) with EP300 was assessed using Alphascreen™ binding assay. The inhibition of the interaction between the EP300 bromodomain and its acetylated target protein was measured quantitatively using recombinant EP300 protein, an acetylated Histone 3 peptide and AlphaScreen™ technology. In absence of inhibition of the EP300 protein bound to AlphaScreen™ nickel chelate acceptor beads can interact with the acetylated Histone 3 peptide which is immobilized by the AlphaScreen™ Streptavidin coated beads. This interaction brings donor and acceptor beads in proximity. The close proximity allows the singlet oxygen produced by laser excitation of the donor beads to reach the acceptor beads and generate a luminescence signal. EP300 inhibitors result in a decrease in the proximity signal through an inhibition of the EP300—acetylated peptide interaction.
Recombinant human EP300 containing the bromodomain (EP300-BD (1040-1161)) was prepared and purified as described in protein expression and purification session. The peptide is human Histone H345-64K56Ac-Biotin (Anaspec CA, USA).
Protocol for EP300 assay: All components were prepared in buffer composed of 50 mM HEPES pH 7.5, 50 mM NaCl, 0.01% BSA, 0.01% Triton X-100, 2 mM DTT. Test compounds and DMSO vehicle were diluted 1:50 in buffer and a 4 μL volume is transferred to an Alphaplate. 5.5 μL of EP300 protein and 5.5 μL of peptide were added to wells containing 4 μL of various concentrations of test compounds of Formula (I) or DMSO vehicle in an Alphaplate (PerkinElmer GA, USA) and incubated for 1 hour at room temperature. 5 μL donor and acceptor bead mixture was then added with final concentrations of 7.5 μg/ml. 60 minutes after bead addition, Alpha signal is read on the Envision spectrometer (λEx 680 nm, λEm 520-620 nm). Final concentrations of bromodomain proteins and peptide are as shown below.
All data were normalized to the mean of 16 high and 16 low control wells on each plate. A four parameter curve fit of the following formula was then applied: Y=A+((B−A)/(1+((C/x)^D))) Where ‘A’ is the minimum, ‘B’ is the maximum, ‘C’ is the IC50 and ‘D’ is the Hill slope. Protein Expression and Purification
Recombinant human EP300 bromodomain (EP300-BD (1040-1161)) was expressed in E. coli cells (in a modified pET vector) with an N-terminal six-His tag and purified using a combination of both IMAC (Ni-affinity) and size exclusion chromatography steps.
Recombinant EP300 protein was expressed using the E. coli strain BL21-CodonPlus (DE3) (Agilent Technologies CA, USA). Cells were grown in Terrific Broth (TB) media to an OD600 of 0.7 at 37° C. at which temperature was reduced to 18° C., protein was induced with 1.0 mM isopropyl-β-D-thiogalactopyranoside (“IPTG”) for 20 hours and harvested by centrifugation at 8500×g for 20 minutes. Cells were re-suspended in 0.1M K2PO4 pH 8.0, 250 mM NaCl, 10% Glycerol, 0.75% NP-40, 25 mM Imidazole, with 0.2 mg/ml Lysozyme, 0.2 mM phenylmethanesulfonyl fluoride (“PMSF”), 25 μg/ml DNase I, incubated on ice for 30 minutes and lysed with a cell disruptor (MicroFluidics MA, USA). The lysate was clarified by centrifugation at 20,000×g for 1 hour. The protein was captured with Ni-NTA resin (Life Technologies, USA). Contaminating proteins were washed off with 50 mM HEPES pH 7.5, 500 mM NaCl, and 5% Glycerol. Following 3× wash steps, protein was eluted step wise using 10, 25, 50, 100, 150, and 250 mM Imidazole in 50 mM HEPES pH 7.5, 500 mM NaCl, and 5% glycerol. The protein was further purified using a size exclusion column (26/600 Superdex 200, GE Biosciences NJ, USA) in 10 mM HEPES pH 7.5, […].

**Q.** `Cc1noc(C)c1-c1cnc2c(c1)c(-c1ccc(C(=O)O)cc1OC1COC1)cn2[C@@H](C)c1ccccn1` [P-0137, (S)-4-(5-(3,5-dimethylisoxazol-4-yl)-1-(1-(pyridin-2-yl)ethyl)-1H-pyrrolo[2,3-b]pyridin-3-yl)-3-(oxetan-3-yloxy)benzoic acid] was tested. Which pIC50 did it give?
**A.** 6.00 to 10.00

**Q.** `Cc1noc(C)c1-c1cnc2c(c1)c(-c1ccc(C(=O)O)cc1OCC1CC1)cn2[C@@H](C)c1ccccn1` [P-0138, (S)-3-(cyclopropylmethoxy)-4-(5-(3,5-dimethylisoxazol-4-yl)-1-(1-(pyridin-2-yl)ethyl)-1H-pyrrolo[2,3-b]pyridin-3-yl)benzoic acid] was tested. Which pIC50 did it give?
**A.** 6.00 to 10.00

**Q.** `Cc1noc(C)c1-c1cnc2c(c1)c(-c1ccc(C(=O)O)cc1OCc1ccccc1)cn2[C@@H](C)c1ccccn1` [P-0139, (S)-3-(benzyloxy)-4-(5-(3,5-dimethylisoxazol-4-yl)-1-(1-(pyridin-2-yl)ethyl)-1H-pyrrolo[2,3-b]pyridin-3-yl)benzoic acid] was tested. Which pIC50 did it give?
**A.** 6.00 to 10.00

**Q.** How did the pIC50 turn out when `COc1ccc(C(=O)O)cc1-c1cn(C(C)c2ccccc2)c2cc(-c3c(C)noc3C)cnc12` (centres unmarked) [P-0140, 3-(6-(3,5-dimethylisoxazol-4-yl)-1-(1-phenylethyl)-1H-pyrrolo[3,2-b]pyridin-3-yl)-4-methoxybenzoic acid] was run?
**A.** 6.00 to 10.00

**Q.** With `Cc1noc(C)c1-c1cnc2c(-c3cc(C(=O)O)ccc3Cl)cn(C(C)c3ccccc3)c2c1` (centres unmarked) [P-0141, 4-chloro-3-(6-(3,5-dimethylisoxazol-4-yl)-1-(1-phenylethyl)-1H-pyrrolo[3,2-b]pyridin-3-yl)benzoic acid] as the compound, how does the pIC50 read?
**A.** 6.00 to 10.00

**Q.** With `COc1cc(C(=O)O)ccc1-c1cn([C@@H](C)c2ccccn2)c2cc(-c3c(C)noc3C)cnc12` [P-0142, (S)-4-(6-(3,5-dimethylisoxazol-4-yl)-1-(1-(pyridin-2-yl)ethyl)-1H-pyrrolo[3,2-b]pyridin-3-yl)-3-methoxybenzoic acid] as the compound, how does the pIC50 read?
**A.** 6.00 to 10.00

**Q.** `Cc1noc(C)c1-c1cnc2c(CC3CCC3)cn(-c3ccc(O)nc3)c2c1` [P-0143, 5-(3-(cyclobutylmethyl)-6-(3,5-dimethylisoxazol-4-yl)-1H-pyrrolo[3,2-b]pyridin-1-yl)pyridin-2-ol] was tested. Which pIC50 did it give?
**A.** 5.10 to 6.00

**Q.** How did the pIC50 turn out when `COc1cc(C(=O)O)cc(O)c1-c1cn([C@@H](C)c2ccccn2)c2ncc(-c3c(C)noc3C)cc12` [P-0144, (S)-4-(5-(3,5-dimethylisoxazol-4-yl)-1-(1-(pyridin-2-yl)ethyl)-1H-pyrrolo[2,3-b]pyridin-3-yl)-3-hydroxy-5-methoxybenzoic acid] was run?
**A.** 6.00 to 10.00

**Q.** `Cc1noc(C)c1-c1cnc2c(c1)c(-c1ccnc(O)c1)cn2[C@@H](C)c1ccccn1` [P-0145, (S)-4-(5-(3,5-dimethylisoxazol-4-yl)-1-(1-(pyridin-2-yl)ethyl)-1H-pyrrolo[2,3-b]pyridin-3-yl)pyridin-2-ol] was tested. Which pIC50 did it give?
**A.** 5.10 to 6.00

**Q.** `COc1cc(C(=O)O)cc(OC)c1-c1cn([C@@H](C)c2ccccn2)c2cc(-c3c(C)noc3C)cnc12` [P-0146, (S)-4-(6-(3,5-dimethylisoxazol-4-yl)-1-(1-(pyridin-2-yl)ethyl)-1H-pyrrolo[3,2-b]pyridin-3-yl)-3,5-dimethoxybenzoic acid] was tested. Which pIC50 did it give?
**A.** 5.10 to 6.00

**Q.** How did the pIC50 turn out when `CCOc1cc(C(=O)O)cc(OCC)c1-c1cn([C@@H](C)c2ccccn2)c2ncc(-c3c(C)noc3C)cc12` [P-0147, (S)-4-(5-(3,5-dimethylisoxazol-4-yl)-1-(1-(pyridin-2-yl)ethyl)-1H-pyrrolo[2,3-b]pyridin-3-yl)-3,5-diethoxybenzoic acid] was run?
**A.** 6.00 to 10.00

**Q.** `CC[C@@H](c1ccccn1)n1cc(-c2cc(C(=O)O)ccc2Cl)c2ncc(-c3c(C)noc3C)cc21` [P-0148, (S)-4-chloro-3-(6-(3,5-dimethylisoxazol-4-yl)-1-(1-(pyridin-2-yl)propyl)-1H-pyrrolo[3,2-b]pyridin-3-yl)benzoic acid] was tested. Which pIC50 did it give?
**A.** 6.00 to 10.00

**Q.** `Cc1noc(C)c1-c1cc2c(cn1)c(CC1CCC1)cn2-c1c(Cl)cc(C(=O)O)cc1Cl` [P-0149, 3,5-dichloro-4-(3-(cyclobutylmethyl)-6-(3,5-dimethylisoxazol-4-yl)-1H-pyrrolo[3,2-c]pyridin-1-yl)benzoic acid] was tested. Which pIC50 did it give?
**A.** 6.00 to 10.00

**Q.** With `Cc1noc(C)c1-c1cnc2c(-c3ccccc3)cn(-c3c(Cl)cc(C(=O)O)cc3Cl)c2c1` [P-0150, 3,5-dichloro-4-(6-(3,5-dimethylisoxazol-4-yl)-3-phenyl-1H-pyrrolo[3,2-b]pyridin-1-yl)benzoic acid] as the compound, how does the pIC50 read?
**A.** 6.00 to 10.00

**Q.** How did the pIC50 turn out when `Cc1noc(C)c1-c1cnc2c(C3=CCOCC3)cn(-c3c(Cl)cc(C(=O)O)cc3Cl)c2c1` [P-0151, 3,5-dichloro-4-(3-(3,6-dihydro-2H-pyran-4-yl)-6-(3,5-dimethylisoxazol-4-yl)-1H-pyrrolo[3,2-b]pyridin-1-yl)benzoic acid] was run?
**A.** 6.00 to 10.00

**Q.** How did the pIC50 turn out when `COc1cc(C(=O)O)cc(OCC2CC2)c1-c1cn([C@@H](C)c2ccccn2)c2ncc(-c3c(C)noc3C)cc12` [P-0152, (S)-3-(cyclopropylmethoxy)-4-(5-(3,5-dimethylisoxazol-4-yl)-1-(1-(pyridin-2-yl)ethyl)-1H-pyrrolo[2,3-b]pyridin-3-yl)-5-methoxybenzoic acid] was run?
**A.** 6.00 to 10.00

**Q.** With `COc1cc(C(=O)O)cc(OCC(F)(F)F)c1-c1cn([C@@H](C)c2ccccn2)c2ncc(-c3c(C)noc3C)cc12` [P-0153, (S)-4-(5-(3,5-dimethylisoxazol-4-yl)-1-(1-(pyridin-2-yl)ethyl)-1H-pyrrolo[2,3-b]pyridin-3-yl)-3-methoxy-5-(2,2,2-trifluoroethoxy)benzoic acid] as the compound, how does the pIC50 read?
**A.** 6.00 to 10.00

**Q.** With `Cc1noc(C)c1-c1cnc2c(-c3ccc(C(=O)O)cc3)c(C(F)(F)F)n([C@@H](C)c3ccccn3)c2c1` [P-0154, (S)-4-(6-(3,5-dimethylisoxazol-4-yl)-1-(1-(pyridin-2-yl)ethyl)-2-(trifluoromethyl)-1H-pyrrolo[3,2-b]pyridin-3-yl)benzoic acid] as the compound, how does the pIC50 read?
**A.** 6.00 to 10.00

**Q.** With `Cc1noc(C)c1-c1cnc2c(-c3ccccc3Cl)cn(C(C)(c3ccccn3)c3ccccn3)c2c1` [P-0155, 4-(3-(2-chloropheny1)-1-(1,1-di(pyridin-2-yl)ethyl)-1H-pyrrolo[3,2-b]pyridin-6-yl)-3,5-dimethylisoxazole] as the compound, how does the pIC50 read?
**A.** 6.00 to 10.00

**Q.** With `Cc1noc(C)c1-c1cnc2c(c1)c(-c1ccc(C(=O)O)cc1OC(F)(F)F)cn2C(C1CC1)C1CC1` [P-0156, 4-(1-(dicyclopropylmethyl)-5-(3,5-dimethylisoxazol-4-yl)-1H-pyrrolo[2,3-b]pyridin-3-yl)-3-(trifluoromethoxy)benzoic acid] as the compound, how does the pIC50 read?
**A.** 6.00 to 10.00

**Q.** How did the pIC50 turn out when `Cc1noc(C)c1-c1cnc2c(c1)c(-c1ccc(C(=O)O)cc1OC(F)(F)F)cn2CC1CC(F)(F)C1` [P-0157, 4-(1-((3,3-difluorocyclobutyl)methyl)-5-(3,5-dimethylisoxazol-4-yl)-1H-pyrrolo[2,3-b]pyridin-3-yl)-3-(trifluoromethoxy)benzoic acid] was run?
**A.** 6.00 to 10.00

**Q.** With `Cc1noc(C)c1-c1cnc2c(c1)c(-c1ccc(C(=O)O)cc1OC(F)(F)F)cn2-c1ccccn1` [P-0158, 4-(5-(3,5-dimethylisoxazol-4-yl)-1-(pyridin-2-yl)-1H-pyrrolo[2,3-b]pyridin-3-yl)-3-(trifluoromethoxy)benzoic acid] as the compound, how does the pIC50 read?
**A.** 6.00 to 10.00

**Q.** `Cc1noc(C)c1-c1cnc2c(Cc3ccccn3)cn(-c3ccc(C(=O)O)cc3OC(F)(F)F)c2c1` [P-0159, 4-(6-(3,5-dimethylisoxazol-4-yl)-3-(pyridin-2-ylmethyl)-1H-pyrrolo[3,2-b]pyridin-1-yl)-3-(trifluoromethoxy)benzoic acid] was tested. Which pIC50 did it give?
**A.** 6.00 to 10.00
